Laboratory results reported in ChEMBL document CHEMBL1152046, “Pyrrolooctahydroisoquinolines as potent and selective opioid receptor ligands: SAR analysis and docking studies” (Bioorg Med Chem Lett, 1997).

Experiments:
[1] = target: Delta-type opioid receptor (Mus musculus, UniProt P32300); assay: inhibition of [3H]DADLE binding to delta-opioid receptor of mouse brain homogenates
[2] = target: Kappa-type opioid receptor (Mus musculus, UniProt P33534); assay: Binding affinity against Kappa opioid receptor using [3H]U-69593 radioligand in mouse brain homogenates; format: tissue-based
Mu-type opioid receptor = Mu-type opioid receptor (Mus musculus, UniProt P42866); assay: Inhibition of [3H]DAMGO from mouse brain homogenate Mu opioid receptor
Chain of Mu-type opioid receptor (P42866 whole entry): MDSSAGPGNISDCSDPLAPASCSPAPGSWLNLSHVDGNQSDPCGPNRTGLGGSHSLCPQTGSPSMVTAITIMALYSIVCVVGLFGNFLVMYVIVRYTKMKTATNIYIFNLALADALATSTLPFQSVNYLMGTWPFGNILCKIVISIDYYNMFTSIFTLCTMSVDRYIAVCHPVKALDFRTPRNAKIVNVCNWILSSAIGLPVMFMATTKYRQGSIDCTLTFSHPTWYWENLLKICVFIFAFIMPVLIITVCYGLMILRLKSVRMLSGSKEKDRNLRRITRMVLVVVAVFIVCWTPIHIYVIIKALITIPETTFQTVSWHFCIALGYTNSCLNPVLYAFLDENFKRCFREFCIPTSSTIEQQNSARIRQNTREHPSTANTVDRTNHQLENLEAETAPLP

Chain of Delta-type opioid receptor (P32300 whole entry): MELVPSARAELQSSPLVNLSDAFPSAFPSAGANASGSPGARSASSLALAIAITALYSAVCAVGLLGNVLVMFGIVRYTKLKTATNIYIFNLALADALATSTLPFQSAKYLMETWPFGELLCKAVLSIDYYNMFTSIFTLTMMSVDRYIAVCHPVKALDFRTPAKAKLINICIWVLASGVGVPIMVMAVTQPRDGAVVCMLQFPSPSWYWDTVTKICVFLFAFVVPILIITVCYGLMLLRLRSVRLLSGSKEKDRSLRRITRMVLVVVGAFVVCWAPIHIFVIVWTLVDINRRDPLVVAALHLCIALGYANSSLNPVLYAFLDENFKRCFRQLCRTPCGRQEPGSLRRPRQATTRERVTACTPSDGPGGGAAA
Chain of Kappa-type opioid receptor (P33534 whole entry): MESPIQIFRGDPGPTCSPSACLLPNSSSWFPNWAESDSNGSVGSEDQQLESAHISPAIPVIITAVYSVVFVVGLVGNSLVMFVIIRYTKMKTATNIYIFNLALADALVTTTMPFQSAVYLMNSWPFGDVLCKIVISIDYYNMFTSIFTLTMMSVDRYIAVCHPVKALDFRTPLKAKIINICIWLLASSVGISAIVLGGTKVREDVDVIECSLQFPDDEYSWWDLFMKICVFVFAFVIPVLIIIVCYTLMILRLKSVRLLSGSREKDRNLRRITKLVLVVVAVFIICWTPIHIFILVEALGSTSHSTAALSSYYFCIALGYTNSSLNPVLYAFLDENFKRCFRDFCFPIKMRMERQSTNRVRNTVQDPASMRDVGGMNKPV

SMILES | Ki [1] [nM] | Ki [2] [nM] | Ki (Mu-type opioid receptor) [nM]
CCN1CC[C@]2(c3cccc(O)c3)Cc3[nH]c(C(=O)N(CC)CC)c(C)c3C[C@H]2C1 | 0.95 | – | –
CCN1CC[C@]2(c3cccc(O)c3)Cc3[nH]c(C(=O)N(C(C)C)C(C)C)c(C)c3C[C@H]2C1 | 2.6 | > 1000 | 57.9
CCN1CC[C@]2(c3cccc(O)c3)Cc3c([nH]c(C(=S)N(CC)CC)c3C)C[C@H]2C1 | 1.5 | 449 | 42
CCN1CC[C@]2(c3cccc(O)c3)Cc3[nH]c(C(=O)N(C)C)c(C)c3C[C@H]2C1 | 6.8 | > 1000 | 580
CCN(CC)C(=O)c1[nH]c2c(c1C)C[C@@]1(c3cccc(O)c3)CCN(C)C[C@@H]1C2 | 3 | > 1000 | 89.4
CCOC(=O)c1[nH]c2c(c1C)C[C@@]1(c3cccc(O)c3)CCN(CC)C[C@@H]1C2 | 2.4 | 169 | 141
CN1CC[C@]2(c3cccc(O)c3)Cc3nc4ccccc4cc3C[C@H]2C1 | 0.23 | 312 | 59.6
CCN1CC[C@]2(c3cccc(O)c3)Cc3[nH]c(C(N)=O)c(C)c3C[C@H]2C1 | 15.1 | 70.4 | 139
